# Assay results: patent US7629310B2, “RhoB as a suppressor of cancer cell growth, cell transformation, and metastasis” (University of South Florida, priority 2000, dated 2009)
# Key:
# [1] = system: RhoB promoter; assay: RhoB promoter transcriptional activity (luciferase reporter) in human cancer cell lines A-549, Panc-1, C33A; type: cell-based; details: for RhoB Promoter transcriptional activity (% inhibition): vs pcDNA3 control
# Excerpt: Gene Constructs and RhoB Promoter Transcriptional Activity Assay. Constitutively active H-Ras61L, K-RasV12, N-RasV12, and dominant negative […]-Ras were kind gifts from Dr. Channing Der (University of North Carolina) (Khosravi-Far, R. et al., Mol Cell Biol, 1995, 15:6443-53; Quilliam, L. A. et al., Mol Cell Biol, 1994, 14:1113-21). Wild-type RhoA and RhoB were subcloned into hemaglutinin (HA)-tagged pcDNA3 (INVITROGEN). The orientation and the sequences of these genes were confirmed by DNA sequencing facilities at the H. Lee Moffitt Cancer Center, Tampa, Fla. RhoB promoter construct pGEI was kindly provided by Dr Y. Monden (Banyu Tsukuba Research, Japan) (Nakamura et al., 1996). pCMV-β-galactosidase vector was purchased from INVITROGEN. The plasmid containing CA-, DN-PI3K, Mek and Akt were kindly provided by Dr. Julie Y. Djeu (H. Lee Moffitt Cancer and Research Institute, Tampa, Fla.) (Jiang, K. et al., Blood, 2003, 101:236-44). β-galactosidase activity and luciferase assay kits were purchased from PROMEGA Corporation, Madison, Wis. The serum response element (SRE) reporter was provided by Dr. Richard Jove, H. Lee Moffitt Cancer and Research Institute, Tampa, Fla. […] Richard Jove, Oncology program, H. Lee Moffitt Cancer and Research Institute, Tampa, Fla. […] Human EGFR, ErbB2 cDNA construct were kindly provided by Dr. Noreen Luetteke, H. Lee Moffitt Cancer and Research Institute, Tampa, Fla. (Luetteke, N. C. et al., Genes Dev, 1994, 8:399-413). DNA transfection was performed with the standard lipofectamine protocol (INVITROGEN). Briefly, cells were plated in 60-mm plates, pGEI plasmid was used at 2 μg per plate, whereas all the other plasmids were used at 0.1-1.0 μg per plate. After transfection the cells were grown for another 36-48 h. Cells were then washed twice with PBS and lyzed in Promega Passive Lysis Buffer. Aliquots of the lysates were then used to measure the luciferase and β-galactosidase activities. The luciferase values were first divided by β-galactosidase values. The RhoB promoter transcriptional activity was determined by dividing the luciferase/β-Gal values from oncogene-transfected cells by those from pcDNA3-transfected cells. […] All the samples were performed in triplicate and the averages of 3 independent experiments were reported here. Proteins that induce malignant transformation and those that suppress tumorigenesis most likely antagonize each other's functions. […] Du, W. et al., Mol Cell Biol, 1999, 19:1831-40; Du, W. and Prendergast, G. C., Cancer Res, 1999, 59:5492-6). An objective of the experiments described herein was to determine whether oncogenes that are prevalent in human cancers suppress RhoB expression, and whether RhoB antagonizes the ability of these oncogenes to induce malignant transformation. To this end, the effects of several oncogenes on RhoB promoter transcriptional activity were first evaluated. NIH3T3 cells and human cancer cell lines derived from lung (A-549), pancreatic (Panc-1) and cervical (C33A) tumors were transiently transfected with pcDNA3 empty vectors or pcDNA3 constructs containing various oncogenes along with full length RhoB promoter firefly luciferase reporter and SRE-renilla luciferase reporter as well as a β-gal reporter for controlling transfection efficiency as described in the Materials and Methods section.
# [2] = system: RhoB protein levels; assay: RhoB protein level by Western blotting in PANC-1 cells; type: cell-based, human; details: treated 48 hours (FIG. 7E)
# Method: H-Ras/3T3 cells were treated with (FIG. 7A) different concentrations of LY294002 for 48 hrs or (FIG. 7B) LY294002 (20 μM) for different time intervals. The cells were then lysed and analyzed for RhoB and RhoA protein levels by Western Blotting with anti-RhoB and anti-RhoA; the same filter was re-probed with antiβ-actin for loading control. NIH3T3 cells (FIG. 7C) were transiently transfected with various genes as indicated for 24 hours; and then treated with either DMSO vehicle or LY294002 or 5-FU alone or in combination for another 48 hours. The cells were analyzed for RhoB, RhoA, and β-actin protein levels as described above. […] The cells were analyzed for RhoB and RhoA protein levels by Western Blotting with anti-RhoB and anti-RhoA; the same filter was re-probed with anti-β-actin, anti-HA and anti-pan-Akt antibodies. PANC-1 cells (FIG. 7E) and A549 cells (FIG. 7F) were treated PD, LY or 5-FU as indicated for 48 hours; then analyzed for RhoB and RhoA protein levels by Western Blotting as described above.
# Western Blot Analysis. […] Antigen-bound antibody was detected by enhanced chemiluminescence Western blotting kit ([…] […] BIOTECH), Piscataway, N.J.). β-actin was detected as an internal loading control.
# [3] = system: RhoB promoter; assay: RhoB promoter transcriptional activity in H-Ras/3T3 cells; type: cell-based; details: treated 12 hours (FIG. 6B)
# Excerpt: The cell lysates were processed as in FIGS. 5A-5D. […] The cell lysates were processed as in FIGS. 5A-5D. […] The cell lysates were processed as in FIGS. 5A-5D. Gene Constructs and RhoB Promoter Transcriptional Activity Assay. Constitutively active H-Ras61L, K-RasV12, N-RasV12, and dominant negative […]-Ras were kind gifts from Dr. Channing Der (University of North Carolina) (Khosravi-Far, R. et al., Mol Cell Biol, 1995, 15:6443-53; Quilliam, L. A. et al., Mol Cell Biol, 1994, 14:1113-21). Wild-type RhoA and RhoB were subcloned into hemaglutinin (HA)-tagged pcDNA3 (INVITROGEN). The orientation and the sequences of these genes were confirmed by DNA sequencing facilities at the H. Lee Moffitt Cancer Center, Tampa, Fla. RhoB promoter construct pGEI was kindly provided by Dr Y. Monden (Banyu Tsukuba Research, Japan) (Nakamura et al., 1996). pCMV-β-galactosidase vector was purchased from INVITROGEN. The plasmid containing CA-, DN-PI3K, Mek and Akt were kindly provided by Dr. Julie Y. Djeu (H. Lee Moffitt Cancer and Research Institute, Tampa, Fla.) (Jiang, K. et al., Blood, 2003, 101:236-44). β-galactosidase activity and luciferase assay kits were purchased from PROMEGA Corporation, Madison, Wis. […] The RhoB promoter transcriptional activity was determined by dividing the luciferase/β-Gal values from oncogene-transfected cells by those from pcDNA3-transfected cells. […]
# [4] = system: NIH3T3 cells; assay: 5-FU-induced apoptosis (Annexin V, flow cytometry) in NIH3T3 cells; type: cell-based; details: NIH3T3, transfected 24 hours then 5-FU 48 hours (FIG. 10A); control 28-30%
# Method: Apoptosis Assay. Cells were collected by trypsinization, washed in wash buffer and stained with Annexin V and 7-AAD according to manufacturer's recommendation (PharMingen, San Diego, Calif.). Data acquisition and analysis was performed by the Flow Cytometry Core Facility at the H. Lee Moffitt Cancer Center (Tampa, Fla.). All the samples were performed in duplicate and a representative of 3 independent experiments were reported here.
# [5] = system: RhoB promoter; assay: RhoB promoter transcriptional activity (luciferase reporter) in NIH3T3 cells; type: cell-based
# Excerpt: Gene Constructs and RhoB Promoter Transcriptional Activity Assay. Constitutively active H-Ras61L, K-RasV12, N-RasV12, and dominant negative […]-Ras were kind gifts from Dr. Channing Der (University of North Carolina) (Khosravi-Far, R. et al., Mol Cell Biol, 1995, 15:6443-53; Quilliam, L. A. et al., Mol Cell Biol, 1994, 14:1113-21). Wild-type RhoA and RhoB were subcloned into hemaglutinin (HA)-tagged pcDNA3 (INVITROGEN). The orientation and the sequences of these genes were confirmed by DNA sequencing facilities at the H. Lee Moffitt Cancer Center, Tampa, Fla. RhoB promoter construct pGEI was kindly provided by Dr Y. Monden (Banyu Tsukuba Research, Japan) (Nakamura et al., 1996). pCMV-β-galactosidase vector was purchased from INVITROGEN. The plasmid containing CA-, DN-PI3K, Mek and Akt were kindly provided by Dr. Julie Y. Djeu (H. Lee Moffitt Cancer and Research Institute, Tampa, Fla.) (Jiang, K. et al., Blood, 2003, 101:236-44). β-galactosidase activity and luciferase assay kits were purchased from PROMEGA Corporation, Madison, Wis. The serum response element (SRE) reporter was provided by Dr. Richard Jove, H. Lee Moffitt Cancer and Research Institute, Tampa, Fla. (Turkson, J. et al., Mol Cell Biol, 1999, 19:7519-28). […] Richard Jove, Oncology program, H. Lee Moffitt Cancer and Research Institute, Tampa, Fla. (Turkson, J. et al., Mol Cell Biol, 1999, 19:7519-28). […] (Luetteke, N. C. et al., Genes Dev, 1994, 8:399-413). DNA transfection was performed with the standard lipofectamine protocol (INVITROGEN). […] After transfection the cells were grown for another 36-48 h. Cells were then washed twice with PBS and lyzed in Promega Passive Lysis Buffer. Aliquots of the lysates were then used to measure the luciferase and β-galactosidase activities. The luciferase values were first divided by β-galactosidase values. The RhoB promoter transcriptional activity was determined by dividing the luciferase/β-Gal values from oncogene-transfected cells by those from pcDNA3-transfected cells. […] All the samples were performed in triplicate and the averages of 3 independent experiments were reported here.
compound,measurement,setting,value
O=c1cc(N2CCOCC2)oc2c(-c3ccccc3)cccc12 [LY294002],5-FU induction of RhoB promoter activity,[1]; PANC-1 and A-549 cells expressing mutated K-Ras,sensitize these cells to 5-FU induction of RhoB promoter activity
same,induction of RhoB protein levels,[2],8 fold
same,induction of RhoB promoter activity,[3],1.7 fold
COc1cccc(-c2cc(=O)c3ccccc3o2)c1N [PD98059],induction of RhoB protein levels,[2],no induction
Akt: Akt expression construct transfected into NIH3T3 cells,5-FU apoptotic rate after transfection,[4],17%
ErbB2: human ErbB2 cDNA construct,RhoB Promoter transcriptional activity (% inhibition),"[1]; A549, transiently transfected 36 hrs",74 ± 4.3%
same,RhoB Promoter transcriptional activity (% inhibition),"[1]; C33A, transiently transfected 36 hrs",69 ± 3.6%
same,RhoB Promoter transcriptional activity (% inhibition),"[1]; PANC1, transiently transfected 36 hrs",68 ± 4.1%
same,inhibition of RhoB promoter activity,"[5]; NIH3T3, in the presence of N17-H-Ras",18%
same,RhoB Promoter transcriptional activity (% inhibition),"[5]; NIH3T3, transiently transfected 36 hrs, vs pcDNA3 control",79 ± 3.9%
